Legend:
[1] = system: FMR1 expression in FXS-iPSCs; assay: RT-PCR analysis of FMR1 expression in FXS-iPSCs; type: cell-based, human; conditions: for FMR1 transcription levels (RT-PCR): lentiviral Cas9 and two sgRNAs per candidate gene, vs basal level
Description: Cell lines: Throughout the study the following cell lines were used: The FXS-iPSCs cell line A52. Haploid hpESCs-hPES10. CSES7 and CSES9 hESCs and their derivatives were used as a reference for wild type expression. 293T cells were used for the construction of lentiviral constructs.
RNA isolation and reverse transcription: Total RNA was isolated using NucleoSpin RNA Plus kit (Macherey-Nagel) and reverse transcribed using the qScript® cDNA Synthesis Kit. Quantitative real time PCR (qRT-PCR) was performed using SYBR Green qPCR Supermix (Applied Biosystems) and analyzed with the 7300 real-time PCR system (Applied biosystems). FMR1 expression was assessed using specific primers, which amplified a 147 bp product spanning exons 5-6 of FMR1. GAPDH was used for normalization.
DNMT1 disruption assay: As human pluripotent stem cells require DNA methylation for their viability, heterogenous DNMT1-mutant populations of FXS-iPSCs were generated by infecting the cells with a lentiCRISPR v2 lentiviral vector containing an sgRNA that targets the open reading frame of DNMT1. The sgRNA sequence was cloned into the lentiCRISPR v2 plasmid and transformed into Stb13 chemically competent bacteria. Following plasmid isolation, 293T cells were transfected with sgRNA-containing lentiCRISPR V2, psPAX2, and pCMV-VSV-G plasmids at a ratio of 13.3:10:6.6, respectively, in the presence of polyethylenimine ‘Max’ (Polysciences). Lentiviral particle-containing supernatant was collected ˜65 hours after transfection and filtered using […] filters. For transduction, FXS-iPSCs were trypsinized, centrifuged, and suspended in embryonic stem cell media supplemented with 10 μM ROCK inhibitor (Y27632) and 8 μg/ml polybrene (Sigma). The viruses were added to the cell suspension, and the cells were plated on MEFs overnight. After ˜36 hours, the cells' medium was replaced with puromycin-containing medium ([…], Sigma). After 2-14 days selection with puromycin, cells were harvested for RNA extraction. To confirm DNMT1 mutagenesis in the transduced cells, qRT-PCR primers that were designed to have their 3′ ends around the Cas9 cut-site of DNMT1 were used to analyze the abundance of wild-type copies to DNMT1 transcripts.
Generation of gene knockouts: Ten candidate genes were targeted using a lentiviral construct containing Cas9 and a specific sgRNA (Table 2). Two sgRNAs were used to target each candidate gene. Each sgRNA sequence was inserted into a separate lentiCRISPR v2 vector (Addgene cat. No. 52961). As a control, a lentiCRISPR v2 vector without any sgRNA (empty vector) was used. Lentiviruses were produced using 293T cells cultured in 10 cm plates using transfection with the sgRNA-containing-lentiCRISPR v2 construct, psPAX2 (Addgene cat. No. 12260) and pCMV-VSV-G (Addgene cat. No. 8454) at a ratio of 5.32:4:2.64 ratio, in the presence of polyethylenimine “Max” (PEI-Max) (Polysciences) at a 1:2 ratio of DNA to PEI-Max. After 24 hours, the medium was exchanged with standard hESC medium, which was harvested 60-65 hours following transfection, centrifuged, and filtered through 0.45 μm cellulose acetate filters (Millipore). The filtered supernatant was frozen in aliquots at −70° C. For transduction, FXS-iPSCs or haploid human ESCs were trypsinized with TrypLE™ Select, centrifuged, and resuspended in hESC medium supplemented with 8 μg ml-1 polybrene (Sigma) and 10 μM ROCK inhibitor (Y27632). Thawed or fresh viruses were added to the cell suspension, followed by plating the cells on feeder layer MEFs. […]

[2] = system: methylated pFMR1-(240) CGG-EGFP construct in haploid hESCs; assay: methylated pFMR1-(240) CGG-EGFP reporter transfection in mutant haploid hESCs, flow cytometry; type: cell-based, human; conditions: Cas9 + two sgRNAs per gene, compared to Cas9 without sgRNA
Description: In vitro DNA methylation: pFMR1-n (CGG)-eGFP construct was methylated using an M.SssI CpG methyltransferase (NEB) according to manufacturer's recommendations. SAM concentration was adjusted to 640 μM. DNA was extracted using ethanol precipitation.
Library transfection: 10 μM ROCK inhibitor (Y27632) was added 1 hour prior to trypsinization and transfection. Library cells were harvested using TrypLE™ Select Enzyme solution (Thermo Fisher Scientific, Cat #12563029) in a single cell state. Following the first centrifugation, cells were re-suspended twice with DMEM/F12 and centrifuged again before incubation with the plasmid DNA. Transfection of the methylated pFMR1-CGG (240)-EGFP construct was performed using the Xtreme Gene9 reagent (Roche), using standard conditions. 48 hours following transfection, cells were washed with PBS, harvested using TrypLE™ Select, resuspended in PBS supplemented with 15% fetal bovine serum (FBS) and filtered through a 70-μm cell strainer (Corning) and sorted using BD FACDAria III. Transfection efficiency was assessed using the simultaneous transfection of control haploid hESCs with an unmethylated pFMR1-CGG (240)-EGFP construct.
Generation of gene knockouts: Ten candidate genes were targeted using a lentiviral construct containing Cas9 and a specific sgRNA (Table 2). Two sgRNAs were used to target each candidate gene. Each sgRNA sequence was inserted into a separate lentiCRISPR v2 vector (Addgene cat. No. 52961). As a control, a lentiCRISPR v2 vector without any sgRNA (empty vector) was used. Lentiviruses were produced using 293T cells cultured in 10 cm plates using transfection with the sgRNA-containing-lentiCRISPR v2 construct, psPAX2 (Addgene cat. No. 12260) and pCMV-VSV-G (Addgene cat. No. 8454) at a ratio of 5.32:4:2.64 ratio, in the presence of polyethylenimine “Max” (PEI-Max) (Polysciences) at a 1:2 ratio of DNA to PEI-Max. After 24 hours, the medium was exchanged with standard hESC medium, which was harvested 60-65 hours following transfection, centrifuged, and filtered through 0.45 μm cellulose acetate filters (Millipore). […]

SMARCD1: lentiviral Cas9 constructs with two sgRNAs targeting SMARCD1 (guide 1 GGAGCCGGGCCCATTCGCAC; guide 2 GCCACTACCCAGGAGACCGA; expressed or natural sequence; listed as Homo sapiens)
FMR1 transcription levels (RT-PCR) [1]: some increase above basal FMR1 transcription levels | methylated construct expression (relative GFP fluorescence) [2]: highest levels of methylated construct expression

sgRNA targeting DNMT1: lentiCRISPR v2 vector with Cas9 and sgRNA GAGGCCAGAAGGAGGAACCG targeting DNMT1 (listed as Homo sapiens)
FMR1 expression (RT-PCR) ([1]; lentiviral sgRNA + Cas9, collected 7-14 days after start of selection, vs control FXS-iPSCs): reactivation of FMR1 expression

ZNF217: lentiviral Cas9 constructs with two sgRNAs targeting ZNF217 (guide 1 GTGGTGAACGGATCGAGCTG; guide 2 TCTGGATGAAAATGGAGCCG; expressed or natural sequence; listed as Homo sapiens)
FMR1 transcription levels (RT-PCR) [1]: some increase above basal FMR1 transcription levels | methylated construct expression (relative GFP fluorescence) [2]: highest levels of methylated construct expression

C6orf57: lentiviral Cas9 constructs with two sgRNAs targeting C6orf57 (guide 1 GAGACCCAGCTAAGCAACCA; guide 2 TCCCAATCTCCATATCGGGT; expressed or natural sequence; listed as Homo sapiens)
FMR1 transcription levels (RT-PCR) [1]: some increase above basal FMR1 transcription levels | methylated construct expression (relative GFP fluorescence) [2]: highest levels of methylated construct expression

5′-aza-2′-deoxycytidine [5-azadC, reference compound]
FMR1 expression (RT-PCR) ([1]; 5 μM, 4 days): reactivation of FMR1 expression

Source: US20250066769A1, “METHODS OF SCREENING AND TREATING FRAGILE X SYNDROME” (YISSUM RESEARCH DEVELOPMENT COMPANY OF THE HEBREW …, priority 2021, published 2025)
